Data as given in PubChem BioAssay AID588665 (The Scripps Research Institute Molecular Screening Center, 2011).
Active and inactive are the calls of the source.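 The calls were made as follows: active = EGR1 protein level in colon cancer cells shifted at least 30% from solvent-only cells, up or down; inactive = shift under 30% either way.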

Biological target: Early growth response protein 1 (Homo sapiens) (UniProt P18146)
Test: altered EGR1 protein amount, SW620 – cell-based, SW620 colorectal carcinoma, chemiluminescent western blot, counter-screen for KLF5 inhibitor project, late-stage follow-up (AID 588665)
Settings: SW620 EGR1 protein level, 24 h, at 10 µM, active compounds read high

Chain of Early growth response protein 1 (Homo sapiens) (P18146 whole entry, looked up): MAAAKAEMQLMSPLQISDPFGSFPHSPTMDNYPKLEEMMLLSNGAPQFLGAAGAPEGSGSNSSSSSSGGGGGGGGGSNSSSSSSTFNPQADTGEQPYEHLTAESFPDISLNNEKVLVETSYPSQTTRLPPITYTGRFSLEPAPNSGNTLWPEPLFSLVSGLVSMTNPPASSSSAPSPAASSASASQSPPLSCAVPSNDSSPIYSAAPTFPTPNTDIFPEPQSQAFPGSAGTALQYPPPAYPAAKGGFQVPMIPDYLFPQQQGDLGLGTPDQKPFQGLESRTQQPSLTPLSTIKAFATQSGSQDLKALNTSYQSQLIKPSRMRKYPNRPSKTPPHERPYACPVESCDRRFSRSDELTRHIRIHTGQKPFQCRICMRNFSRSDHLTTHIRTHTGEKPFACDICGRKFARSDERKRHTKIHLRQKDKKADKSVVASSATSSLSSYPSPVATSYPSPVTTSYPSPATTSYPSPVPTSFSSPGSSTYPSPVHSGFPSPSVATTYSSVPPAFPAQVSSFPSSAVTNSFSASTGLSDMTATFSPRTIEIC

## CN(C(=O)CNC(=O)/C=C/c1cccc(Cl)c1)C1CCS(=O)(=O)CC1
  inhibition: 37%

## CN(C(=O)CNC(=O)/C=C/c1cccc(Cl)c1)C1CCS(=O)(=O)C1 (stereo not drawn)
  inhibition: -24.8% (inactive)

## CN(C(=O)COC(=O)/C=C/c1cccc([N+](=O)[O-])c1)C1CCS(=O)(=O)C1 (stereo not drawn)
  inhibition: -14.8% (inactive)
